# Starred links: 1 amine or outer side, 2 acyl side, 3 side chain; linkers in the order of their positions; H or OH if unused. Non-standard residues stand in square brackets, D forms with d. Residues, ends and D or L forms follow the SMILES beside them. *: point of attachment. γGlu = O=C(O)[C@H](CCC(=O)[*:2])N[*:1]; Myristoyl = CCCCCCCCCCCCCC(=O)*; Decanoyl = CCCCCCCCCC(=O)*
# Key:
# [1] = tested on: Chymotrypsin; assay: Inhibition of enzymatic degradation of a model GLP-1 (FRET substrate) by chymotrypsin; assay type: biochemical; conditions: for EC50: read-out: EC50 Chymotrypsin (0.001 mg/ml), 0.001 mg/ml chymotrypsin, 37° C., ± standard error if at least 3 measurements
# How it was run: (§1)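 MCA/DNP-labelled model GLP-1 FRET substrate (10 μl of 100 μM stock) in Dulbecco's PBS at 37° C with varying acylated peptide; fluorescence (ex 320/em 405 nm) read every minute for ≥30 min. Initial slopes from linear regression, duplicates averaged; EC50 by sigmoidal logistic fit of slope vs concentration.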
# [2] = tested on: Trypsin; assay: Inhibition of enzymatic degradation of a model GLP-1 (FRET substrate) by trypsin; assay type: biochemical; conditions: for EC50: read-out: EC50 Trypsin (0.001 mg/ml), 0.001 mg/ml trypsin, 37° C.
# How it was run: as §1
# [3] = Stability of N-terminally acylated peptides or oligopeptides in GI juice; assay type: in vitro ADME; conditions: GI juice (jejunum extract); degradation of the compound itself in jejunum extract from rat; read-out: t 1/2 in rat GI juice
# Experimental: 96 well plates were coated by incubating with 0.4% Bovine serum albumin (BSA) solution for minimum of 60 min. To each well, 210 μl of buffer (Hank's balanced salt solution-4-(2-hydroxyethyl)-1-piperazineethanesulfonic acid (HBSS-HEPES) buffer) with 0.005% Tween 20 and 0.001% BSA, pH 6.5 precipitated with 3 vol. cold 96% ethanol (EtOH) w. 1% TFA), 30 μl of a substrate (100 μM insulin analogue or GLP-1 analogue in buffer) and 30 μl of N-terminally acylated peptide or oligopeptide of the invention (10 mM) were added. The plates were pre-incubated (before adding GI juice) for 60 min at 37° C. After addition of 30 μl of GI juice (10-times diluted in buffer), the plates were incubated for 60 min/37° C. on shaker. Samples (40 μl) were taken at 0, 5, 10, 20, 30 and 60 min, stopped with 3 vol. cold 96% EtOH w. 1% TFA and spun down in plates (4500 rpm for 10 min). Samples were diluted 5 times with the buffer prior to LC-MS analysis. Standard samples (0.1, 0.5, 1.0, 5.0, 10.0 μM) were prepared and treated as the samples. Standard curve was analysed both at the beginning and the end of the sequence. Two replicates of each tested conditions were included. Ion suppression was assessed by analyzing a standard at 1 μM and at 10 μM with 1 mM inhibitor present. Intact insulin or GLP-1 analoues were determined at each sample. The results were plotted against the incubation time. Half-lives of the insulin or GLP-1 analogues were determined by nonlinear regression of the results using, for example Graph Pad Prism. The half-lives were expressed relative to the half-live of the insulin or GLP-1 analogue without inhibitor present by dividing the half-lives obtained in the presence of inhibitor with those obtained in the absence of inhibitors. GI juice was prepared from male Sprague Dawley rats (200-250 g) by excising approximately 20 cm piece of mid jejunum and rinsing the inside with 2.5 ml 0.9% sodium chloride solution. The sodium chloride solution was collected in a centrifuge tube, pooled from all rats (20) and centrifuged at 4500 rpm./10 min/4° C. The supernatant was aliquoted in tubes and stored at −80° C.
# Degradation of the N-terminally fatty acid modified peptide or oligopeptide of the invention themselves in jejunum extract from rat (GI juice) and determination of half-lives, was measured as described above (example 200).
# [4] = Hydrophobicity: retention time during reverse phase HPLC; assay type: physicochemical; conditions: Acquity CSH C18; pH 7.2 buffer/CH3CN gradient; 40° C.
# Text: The retention time (RT) during reverse phase HPLC was taken as a measure of hydrophobicity of an N-terminally modified peptide or oligopeptide of the invention, where the connection is: The longer the RT, the more hydrophobic N-terminally modified peptide or oligopeptide. The following running conditions were applied during HPLC analysis:
# Buffer B: 70% (v/v) aq. CH3CN
# [5] = molecular target: Chymotrypsin; assay: Inhibition of enzymatic degradation of a chromogenic substrate (Example 202); assay type: biochemical; conditions: substrate N-succinyl-Ala-Ala-Pro-Phe-p-Nitroanilide
# Text: The use of chromogenic substrates to monitor activity of proteolytic enzymes is known in the field (for example DelMar, E. G., et al., Anal. Biochem., 99, 316-320, (1979)). For example, N-succinyl-Ala-Ala-Pro-Phe-p-Nitroanilide is commonly used substrate for measuring chymotrypsin activity. Enzymatic cleavage of 4-nitroanilide substrates yields 4-nitroaniline (yellow color under alkaline conditions).
# An assay following the increase in absorbance at 395 nm as a function of time was established in 96 well format using Varioskan Flash Multimode Meter (Thermo Scientific). Each well contained 70 μl of Dulbecco's phosphate buffer saline (Invitrogen catalogue #14190-094), 10 μl of N-succinyl-Ala-Ala-Pro-Phe-p-Nitroanilide (Sigma cat# S 7388) in DMSO (different concentrations were used in order to obtain the inhibition constant), 10 μl of N-terminally acylated peptide or oligopeptide of the invention in varying concentration and 10 μl of a stock solution of an enzyme (chymotrypsin, trypsin, elastase, etc.). The incubations were performed at 37° C. Absorbance at 395 nm was measured immediately after addition of the enzyme to the 96 well plate and also every minute for the next 80 minutes. The concentration of the enzyme was optimized to allow determination of slopes for the time course of initial absorbance increase with and without added inhibitors. The slopes were determined by linear regression of the linear part of the fluorescence trace (for example, the first 10 min of the reaction). Each assay was performed in duplicate and average of the two traces was included in the calculations. The relative effect of N-terminally acylated peptide or oligopeptides of the invention on enzymatic degradation of N-succinyl-Ala-Ala-Pro-Phe-p-Nitroanilide was obtained by comparison of the slopes achieved by the same concentration of the N-terminally acylated peptide or oligopeptides. […] This was done by plotting the slopes achieved with different concentrations of the N-terminally acylated peptide or oligopeptides of the invention as a function of their concentrations and fitting the experimental results using, for example, sigmoidal logistic regression (2 parameters, Sigma Plot v 11). Inhibition constants for the interaction between the N-terminally acylated peptide or oligopeptides of the invention and proteolytic enzymes were also obtained by performing the assay described above with varying concentrations of the inhibitor and substrate and analyzing the results, for example, by double reciprocal transformation as known to the person skilled in the art and described for example in Hubalek, F. et al., J. Med. Chem. 47, 1760-1766 (2004).
EC50 [1],EC50 [2],half-life [3],RT (retention time during reverse phase HPLC as a measure of hydrophobicity) [4],Ki [5],Compound,Slope of the initial increase in fluorescence obtained during incubation with 0.001 mg/ml Chymotrypsin ([1]; compound 1 mM),Slope of the initial increase in fluorescence obtained during incubation with 0.001 mg/ml Trypsin ([2]; compound 1 mM)
85 µM,112 µM,10.2 h,9.74 min,–,"CCCCCCCCCCCCCC(=O)N[C@H](C)C(=O)N[C@H](C)C(=O)N1CCC[C@@H]1C(=O)N[C@H](Cc1ccccc1)C(=O)O [Example 2, N-tetradecanoyl-DAla-DAla-DPro-DPhe-OH] (Myristoyl-[dA][dA][dP][dF]-OH)",0.05,0.15
144 µM,44 µM,0.0733 h,5.29 min,–,"CCCCCCCCCCCCCC(=O)N[C@@H](CCC(=O)N[C@@H](C)C(=O)N1CCC[C@H]1C(=O)N[C@@H](Cc1ccccc1)C(=O)O)C(=O)O [Example 23, N-tetradecanoyl-γGlu-Ala-Pro-Phe-OH] ({Myristoyl-γGlu}-Ala-Pro-Phe-OH)",–,–

Compound,EC50 [1],EC50 [2],half-life [3],RT (retention time during reverse phase HPLC as a measure of hydrophobicity) [4],Ki [5],Slope of the initial increase in fluorescence obtained during incubation with 0.001 mg/ml Chymotrypsin ([1]; compound 1 mM),Slope of the initial increase in fluorescence obtained during incubation with 0.001 mg/ml Trypsin ([2]; compound 1 mM)
N-decanoyl-Ala-Ala-Pro-Phe-OH (Decanoyl-AAPF-OH) [Example 33],–,–,–,4.93 min,850 µM,–,–

# Reference: patent publication US20150038435A1, “N-TERMINALLY MODIFIED OLIGOPEPTIDES AND USES THEREOF” (Novo Nordisk A/S, priority 2012, published 2015)
